Laboratory results from patent publication US11766447B2, “3′3′-cyclic dinucleotide analogue comprising a cyclopentanyl modified nucleotide as sting modulator” (INSTITUTE OF ORGANIC CHEMISTRY AND BIOCHEMISTRY ASCR, V.V.I., priority 2019, dated 2023).
Like-named read-outs stand apart in the source and are kept apart here. Each block holds one compound with its values, some of them ahead of it.

What was measured:
[1] = molecular target: T1, WT STING (Homo sapiens, UniProt Q86WV6, H232R); test: 293T WT STING standard reporter assay; format: cell-based; parameters: host or cells: 293T (ATCC CRL-3216), stably transfected, with 4xISRE firefly luciferase reporter; conditions: 293T wtSTING-FL cells, ISRE firefly luciferase; no digitonin; 7 hours with compounds; 8-point curve
Source text: Two complementary oligonucleotides of the sequence […] […] […] […] […] The oligonucleotides were mixed in equal molar amounts, hybridized, and cleaved by restriction endonucleases HindIII (cat. #. R0104S, NEB, Ipswich, USA) and BglII (cat. #R0144S, NEB, Ipswich, USA). Ultimately, they were ligated into plasmid pGL4.27 (cat. #E6651, Promega, Madison, USA) linearized with the same enzymes. As result the sequence with four ISRE sites was placed upstream of the minimum promoter of firefly luciferase reporter gene.
After 5 minutes incubation at room temperature (RT), 250 μL of the mixture was added dropwise to the cells in one well. Cells were incubated 36 hours at 37° C. with 5% CO2, and then detached with 0.05% Trypsin and 0.22 g/L EDTA (both cat. #L0941, Biowest, Riverside, USA).
Transfected cells were seeded onto poly-D-lysine coated six well plates at density 50,000 cells per 1 cm^2 in DMEM medium with high glucose containing 10% heat inactivated FBS, 30 μg/mL blasticidin (cat. #ant-b1-05, InvivoGen, San Diego, USA), 0.06 mg/ml Penicillin G and 0.1 mg/ml Streptomycin Sulfate (both cat. #. L0018, Biowest, Riverside, USA). The medium was replenished every 3-4 days until visible colonies of cells resistant to blasticidin were formed.
Blasticidin resistant cells stably expressing WT STING were further transfected with […] plasmid following the same procedure as described above. […] Homogeneous culture of stably double transfected cells was prepared by limiting dilution of cells in 96 well plates and wells with cells were selected that originated from a single cell.
The medium was removed next day and three-fold serial dilutions of compounds in 100 μl medium were added to the cells. The plates with cells were incubated for 7 hours at 37° C. with 5% CO2. After 50 μl of the medium was removed, 30 μl of ONE-Glo™ Luciferase Assay System reagent (cat. #E6120, Promega, Madison, USA) was added to each well and luminescence was read on Synergy H1 (Biotek, Winooski, USA).
Target sequence in this assay (Q86WV6 whole entry H232R): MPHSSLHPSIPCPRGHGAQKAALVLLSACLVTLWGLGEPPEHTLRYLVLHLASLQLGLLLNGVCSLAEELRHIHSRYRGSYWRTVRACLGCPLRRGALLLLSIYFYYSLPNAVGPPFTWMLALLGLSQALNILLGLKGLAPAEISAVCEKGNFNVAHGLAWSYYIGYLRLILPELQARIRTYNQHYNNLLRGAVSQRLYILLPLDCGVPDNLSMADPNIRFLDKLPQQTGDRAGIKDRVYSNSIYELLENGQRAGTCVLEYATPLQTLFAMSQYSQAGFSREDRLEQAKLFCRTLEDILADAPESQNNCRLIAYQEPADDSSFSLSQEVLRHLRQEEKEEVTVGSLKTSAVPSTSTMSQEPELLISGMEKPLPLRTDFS

[2] = test system: peripheral blood mononuclear cells (PBMC); test: Peripheral blood mononuclear cell (PBMC) assay; format: cell-based; conditions: 1 h with compounds, washed, 15 hour incubation, average of one to four donors
Procedure: Selected compounds were tested in an in vitro peripheral blood mononuclear cell (PBMC) assay. […] Serially diluted tested compounds were added to wells in 50 μl of cultivation medium and cell were incubated with compounds for 1 h at 37° C. with 5% CO2. Plates with cells were then spun 500 g for 5 minutes and medium was removed. Cells were washed twice with the cell culture medium by the use of centrifugation and gently resuspended in 100 μl medium without compounds. After 15 hour incubation at 37° C. with 5% CO2, the cell culture medium was collected and the levels of interferon-alpha (INF-α), interferon-gamma (INF-γ) and tumor necrosis factor-alpha (TNF-α) were determined with ProcartaPlex Assays (ThermoFisher, Waltham, USA) and MAGPIX System (Merck KGaA, Darmstadt, Germany). […] Values reported are an average of runs from one to four donors.

[3] = molecular target: T2, AQ STING (G230A-R293Q) (Homo sapiens, UniProt Q86WV6, G230A/H232R/R293Q); test: Differential scanning fluorimetry (DSF) with AQ STING; format: binding; conditions: thermal shift vs apoprotein; 150 μM CDN; truncated human AQ STING 0.1 mg/ml
T2 construct: 8xHis (N, cleaved yes); SUMO (N, cleaved yes); made in house; host or cells: E. coli Rosetta-gami B (DE3)
Summary of the method: (§1)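 […] STING proteins, alone or with CDNs, in triplicate, thermally denatured on a real-time PCR cycler. Denaturing temperatures taken from first-derivative curves; shift = mean Tm of STING–CDN complex minus mean Tm of apoprotein.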

[4] = molecular target: T1, WT STING; test: Differential scanning fluorimetry (DSF) with WT STING; format: binding; parameters: 8xHis (N, cleaved yes); SUMO (N, cleaved yes); made in house; host or cells: E. coli Rosetta-gami B (DE3); conditions: thermal shift vs apoprotein; 150 μM CDN; truncated human WT STING 0.1 mg/ml
Summary of the method: as §1
Target sequence in this assay (Q86WV6 140-343 H232R): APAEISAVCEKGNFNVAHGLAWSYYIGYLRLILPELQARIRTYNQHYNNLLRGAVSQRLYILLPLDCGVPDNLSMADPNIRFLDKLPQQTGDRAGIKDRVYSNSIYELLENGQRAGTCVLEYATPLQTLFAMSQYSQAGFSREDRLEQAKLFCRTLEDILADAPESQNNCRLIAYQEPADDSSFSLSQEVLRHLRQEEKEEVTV

[5] = molecular target: T1, WT STING; test: Digitonin assay using 293T wtSTING-FL reporter cells; format: cell-based; parameters: host or cells: 293T (ATCC CRL-3216), stably transfected, with 4xISRE firefly luciferase reporter; conditions: 293T wtSTING-FL cells, ISRE firefly luciferase; compounds in Digitonin buffer 30 minutes, then 5 hours; 8-point curve
Target sequence in this assay (Q86WV6 whole entry H232R): as the sequence (Q86WV6 whole entry H232R) above

[6] = PBMC, interferon-alpha level, read-out: PBMC EC50 (μM) IFN-α
[7] = PBMC, interferon-gamma level, read-out: PBMC EC50 (μM) IFN-γ
[8] = PBMC, tumor necrosis factor-alpha level, read-out: PBMC EC50 (μM) TNF-α
[9] = interferon-alpha level, read-out: PBMC EC50 (μM) IFN-α
[10] = interferon-gamma level, read-out: PBMC EC50 (μM) IFN-γ
[11] = tumor necrosis factor-alpha level, read-out: PBMC EC50 (μM) TNF-α

T2 sequence (Q86WV6 140-343 G230A/H232R/R293Q): as the sequence (Q86WV6 140-343 H232R) above, with G91A, R154Q counted along it

Compound: CC(C)(C)C(=O)OCOP1(=O)OC[C@H]2O[C@@H](n3cnc4c(N)ncnc43)C(F)C2OP(=O)(OCOC(=O)C(C)(C)C)OC[C@H]2C[C@@H](n3cnc4c(N)ncnc43)CC2O1 (single isomer, unassigned) [Compound 137a]
EC50 [1]: 200 nM

Compound: CC(C)(C)C(=O)OCOP1(=O)OC[C@H]2O[C@@H](n3cnc4c(N)ncnc43)C(F)C2OP(=O)(OCOC(=O)C(C)(C)C)OC[C@H]2C[C@@H](n3cnc4c(N)ncnc43)CC2O1 (single isomer, unassigned) [Compound 137b]
EC50 [1]: 90 nM

Compound: CC(C)(C)C(=O)OCOP1(=O)OC[C@H]2C[C@@H](n3cnc4c(N)ncnc43)C(F)C2OP(=O)(OCOC(=O)C(C)(C)C)OC[C@H]2C[C@@H](n3cnc4c(N)ncnc43)C(F)C2O1 (single isomer, unassigned) [Compound 138a]
EC50 [2, 7]: 1.5 µM | EC50 [2, 8]: 1.9 µM | EC50 [2, 9]: 3.2 µM | EC50 [1]: 70 nM

Compound: CC(C)OC(=O)OCOP1(=O)OC[C@H]2O[C@@H](n3cnc4c(N)ncnc43)[C@H](F)[C@@H]2OP(=O)(OCOC(=O)OC(C)C)OC[C@H]2C[C@@H](n3cnc4c(N)ncnc43)[C@H](F)[C@@H]2O1 (single isomer, unassigned) [Compound 143a]
EC50 [1]: 100 nM

Compound: CC1(C(=O)OCOP2(=O)OC[C@H]3O[C@@H](n4cnc5c(N)ncnc54)[C@H](F)[C@@H]3OP(=O)(OCOC(=O)C3(C)CCCCC3)OC[C@H]3C[C@@H](n4cnc5c(N)ncnc54)[C@H](F)[C@@H]3O2)CCCCC1 (single isomer, unassigned) [Compound 145a]
EC50 [1]: 120 nM

Compound: Nc1ncnc2c1ncn2[C@@H]1C[C@@H]2COP(=O)(O)OC3C(O)[C@H](n4cnc5c(N)ncnc54)C[C@@H]3COP(=O)(O)OC2C1O (stereo partly drawn) [Compound 133, (2R,3S,3aR,7aR,9R,10S,10aR,14aR)-2,9-bis(6-amino-9H-purin-9-yl)-3,5,10,12-tetrahydroxydodecahydrodicyclopenta[d,j][1,3,7,9]tetraoxa[2,8]-diphosphacyclododecine 5,12-dioxide]
ΔTm at 150 µM [3]: 4.4 °C | ΔTm at 150 µM [4]: 0.6 °C | EC50 [5]: 1200 nM

Compound: Nc1ncnc2c1ncn2[C@@H]1C[C@@H]2COP(=O)(O)O[C@H]3[C@@H](F)[C@H](n4cnc5c(N)ncnc54)O[C@@H]3COP(=O)(O)O[C@H]2[C@H]1O [Compound 134, (1R,6R,8R,9R,10R,15R,17R,18S)-8,17-bis(6-amino-9H-purin-9-yl)-9-fluoro-3,12,18-trihydroxy-2,4,7,11,13-pentaoxa-3λ^5,12λ^5-diphosphatricyclo[13.3.0.0^6,10]octadecane-3,12-dione]
ΔTm at 150 µM [3]: 13.2 °C | ΔTm at 150 µM [4]: 6.4 °C | EC50 [5]: 20 nM

Compound: (((2R,3R,3aR,7aR,9R,10S,10aR,14aR)-2,9-bis(6-amino-9H-purin-9-yl)-3,10-difluoro-12-hydroxy-5,12-dioxidodecahydro-2H-cyclopenta[d]furo[3,2-j][1,3,7,9]tetraoxa[2,8]diphosphacyclododecin-5-yl)oxy)methyl pivalate [Compound 135a]
EC50 [1]: 300 nM

The remaining compounds from weak to strong by EC50 [1], led by results:

EC50 [1]: 60 nM
Compound: CC(C)(C)C(=O)OCOP1(=O)OC[C@H]2C[C@@H](n3cnc4c(N)ncnc43)C(F)[C@H]2OP(=O)(OCOC(=O)C(C)(C)C)OC[C@H]2O[C@@H](n3cnc4c(N)ncnc43)[C@@H](F)C2O1 (single isomer, unassigned) [Compound 136b]

EC50 [1]: 50 nM
Compound: CC(C)(C)C(=O)OCOP1(=O)OC[C@H]2C[C@@H](n3cnc4c(N)ncnc43)C(F)[C@H]2OP(=O)(OCOC(=O)C(C)(C)C)OC[C@H]2O[C@@H](n3cnc4c(N)ncnc43)[C@@H](F)C2O1 (single isomer, unassigned) [Compound 136c]

EC50 [1]: 20 nM
Compound: CC(C)(C)C(=O)OCOP1(=O)OC[C@H]2C[C@@H](n3cnc4c(N)ncnc43)C(F)C2OP(=O)(OCOC(=O)C(C)(C)C)OC[C@H]2C[C@@H](n3cnc4c(N)ncnc43)C(F)C2O1 (single isomer, unassigned) [Compound 138b]
EC50 [2, 9]: 1 µM | EC50 [2, 10]: 2.6 µM | EC50 [2, 11]: 1.3 µM

EC50 [1]: 20 nM
Compound: CCC(C)(C)C(=O)OCOP1(=O)OC[C@H]2O[C@@H](n3cnc4c(N)ncnc43)[C@H](F)[C@@H]2OP(=O)(OCOC(=O)C(C)(C)CC)OC[C@H]2C[C@@H](n3cnc4c(N)ncnc43)[C@H](F)[C@@H]2O1 (single isomer, unassigned) [Compound 144a]

EC50 [1]: 10 nM
Compound: CC(C)(C)C(=O)OCOP1(=O)OC[C@H]2C[C@@H](n3cnc4c(N)ncnc43)C(F)[C@H]2OP(=O)(OCOC(=O)C(C)(C)C)OC[C@H]2O[C@@H](n3cnc4c(N)ncnc43)[C@@H](F)C2O1 (single isomer, unassigned) [Compound 136d]
EC50 [2, 6]: 0.9 µM | EC50 [2, 7]: 2.4 µM | EC50 [2, 8]: 0.8 µM

EC50 [1]: 1 nM
Compound: CCC(C)(C)C(=O)OCOP1(=O)OC[C@H]2O[C@@H](n3cnc4c(N)ncnc43)[C@H](F)[C@@H]2OP(=O)(OCOC(=O)C(C)(C)CC)OC[C@H]2C[C@@H](n3cnc4c(N)ncnc43)[C@H](F)[C@@H]2O1 (single isomer, unassigned) [Compound 144c]
EC50 [2, 6]: 0.004 µM | EC50 [2, 7]: 0.003 µM | EC50 [2, 8]: 0.002 µM

EC50 [1]: 1 nM
Compound: CC1(C(=O)OCOP2(=O)OC[C@H]3O[C@@H](n4cnc5c(N)ncnc54)[C@H](F)[C@@H]3OP(=O)(OCOC(=O)C3(C)CCCCC3)OC[C@H]3C[C@@H](n4cnc5c(N)ncnc54)[C@H](F)[C@@H]3O2)CCCCC1 (single isomer, unassigned) [Compound 145b]
EC50 [2, 6]: 0.007 µM | EC50 [2, 7]: 0.002 µM | EC50 [2, 8]: 0.006 µM

EC50 [1]: 0.3 nM
Compound: CCCCCCCC(=O)OCOP1(=O)OC[C@H]2O[C@@H](n3cnc4c(N)ncnc43)[C@H](F)[C@@H]2OP(=O)(OCOC(=O)CCCCCCC)OC[C@H]2C[C@@H](n3cnc4c(N)ncnc43)[C@H](F)[C@@H]2O1 (single isomer, unassigned) [Compound 146b]
EC50 [2, 9]: 0.02 µM | EC50 [2, 10]: 0.01 µM | EC50 [2, 11]: 0.01 µM

EC50 [1]: 0.1 nM
Compound: CCCCCCCC(=O)OCOP1(=O)OC[C@H]2O[C@@H](n3cnc4c(N)ncnc43)[C@H](F)[C@@H]2OP(=O)(OCOC(=O)CCCCCCC)OC[C@H]2C[C@@H](n3cnc4c(N)ncnc43)[C@H](F)[C@@H]2O1 (single isomer, unassigned) [Compound 146a]
EC50 [2, 6]: 0.04 µM
